Test results: PubChem BioAssay (NCI)
≈ marks a conversion by molar mass, not a printed value.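 Each compound was tested at five concentrations against cells in 96-well plates for 48 hours. At the GI50, growth is halved. TGI: concentration producing complete growth inhibition.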

Assays:
Assay in all cases: NCI anticancer screen, dose series, 48 h
[1] = system: DMS 273 small cell lung
[2] = system: HOP-18 NSCLC
[3] = system: M19-MEL melanoma
[4] = system: SNB-78 CNS
[5] = system: MDA-N
[6] = system: XF 498 CNS
[7] = system: RXF-631 renal

## CCOc1ccc(NC(=O)CCc2nnc(SC)o2)cc1
[1]
  TGI: > 100 µM
[2]
  TGI: > 100 µM
[3]
  TGI: > 100 µM
[4]
  TGI: > 100 µM

## C1CSCCSCCCSCCSCCCSCCSCCCSCCSC1
[5]
  TGI: > 100 µM

## Cc1cc2c(c(C(N)=O)c1C)-c1cc(Cl)cc(Cl)c1C2=O
[1]
  TGI: > 100 µM
[2]
  TGI: > 100 µM
[3]
  TGI: > 100 µM
[4]
  TGI: > 100 µM

## c1cc(-c2cn3c(n2)SCC3)ccn1
[1]
  TGI: 93.1 µM
[2]
  TGI: > 100 µM
[3]
  TGI: > 100 µM
[4]
  TGI: > 100 µM
[6]
  TGI: > 100 µM

## O=C1c2ccccc2N2OC3(N4CCCC4)CCCCC3C12c1ccccc1 (stereo not drawn)
[1]
  TGI: 30.9 µM
[2]
  TGI: > 100 µM
[3]
  TGI: 22 µM
[4]
  TGI: 33.9 µM
[6]
  TGI: 41.1 µM

## N#CC1(C#N)C(c2ccccc2)C=CC12OCCCO2 (stereo not drawn)
[1]
  TGI: > 100 µM
[2]
  TGI: > 100 µM
[3]
  TGI: > 100 µM
[7]
  TGI: > 100 µM
[4]
  TGI: > 100 µM
[6]
  TGI: > 100 µM

## O=C(/C=C/c1ccc(Cl)c(Cl)c1)c1cccc2ccccc12
[1]
  TGI: 14.7 µM
[2]
  TGI: 31.1 µM
[3]
  TGI: 24.6 µM
[7]
  TGI: 33.1 µM
[4]
  TGI: 26.8 µM

## Cc1ccccc1-n1c(N)c(-c2nc3ccccc3[nH]2)sc1=S
[1]
  TGI: 35 µM
[2]
  TGI: 72.8 µM
[3]
  TGI: 50.5 µM
[7]
  TGI: 49.1 µM
[4]
  TGI: 74.8 µM

## O=C(Cc1nc2ccccc2o1)C(=O)Nc1cccc(C(F)(F)F)c1
[1]
  TGI: > 100 µM
[2]
  TGI: > 100 µM
[3]
  TGI: > 100 µM
[7]
  TGI: > 100 µM
[4]
  TGI: > 100 µM

## Fc1cccc(F)c1C(Nc1nncs1)Nc1nncs1
[5]
  TGI: > 100 µM

## CC(=O)/C(=C\c1ccccc1O)C(=O)Nc1ccccc1C
[2]
  TGI: > 100 µM
[3]
  TGI: > 100 µM
[4]
  TGI: 98.7 µM
[6]
  TGI: 28.1 µM

## Clc1ccc(C2ON=C(c3ccccc3)N2C23CC4CC(CC(C4)C2)C3)cc1 (stereo not drawn)
[5]
  TGI: > 10 µM

## CC1=NN(c2ccccc2)C(=O)/C1=C\c1ccc([N+](=O)[O-])cc1
[1]
  TGI: 62.7 µM
[7]
  TGI: 77.4 µM
[4]
  TGI: > 100 µM
[6]
  TGI: 44.6 µM

## COc1ccc(-c2cc(=O)c3c(O)cccc3o2)c(OC)c1OC
[1]
  TGI: > 100 µM
[3]
  TGI: > 100 µM
[7]
  TGI: > 100 µM
[4]
  TGI: > 100 µM
[6]
  TGI: > 100 µM

## ClC1=C(Cl)C(Cl)(Cl)c2c3c(c4c(c21)C(Cl)(Cl)C(Cl)=C4Cl)C(Cl)(Cl)C(Cl)=C3Cl
[1]
  TGI: > 100 µM
[6]
  TGI: > 100 µM

## CC(C)(C)c1cc2nc(c1)C(C(F)(F)F)(C(F)(F)F)OB(Br)OC2(C(F)(F)F)C(F)(F)F
[1]
  TGI: 0.107 µM
[3]
  TGI: 12.2 µM
[7]
  TGI: 5.35 µM
[4]
  TGI: 1.56 µM
[6]
  TGI: 6.91 µM

## N[C@H](COCc1ccccc1)c1ccccc1
[1]
  TGI: 50 µM
[2]
  TGI: > 89.8 µM
[3]
  TGI: 64.3 µM
[4]
  TGI: > 100 µM
[6]
  TGI: 48.3 µM

## c1ccc2c(c1)CCc1c-2n[nH]c1-c1[nH]nc2c1CCc1ccccc1-2
[1]
  TGI: > 100 µM
[2]
  TGI: > 100 µM
[3]
  TGI: > 100 µM
[7]
  TGI: > 100 µM
[4]
  TGI: > 100 µM
[6]
  TGI: > 100 µM

## CC1=C(C(=O)Nc2ccc(Cl)c(Cl)c2)C(c2ccc([N+](=O)[O-])cc2)C(C(=O)Nc2ccc(Cl)c(Cl)c2)=C(C)N1
[1]
  TGI: 9.14 µM
[2]
  TGI: 19.2 µM
[3]
  TGI: 3.97 µM
[7]
  TGI: 6.69 µM
[4]
  TGI: 26.7 µM
[6]
  TGI: 4.38 µM

## O=Cc1ccc2c(c1I)OCO2
[1]
  TGI: > 100 µM
[2]
  TGI: > 100 µM
[3]
  TGI: > 100 µM
[4]
  TGI: > 100 µM

## Cc1cccc(NC(=O)/C(=N\N)C(c2cnc3ccc([N+](=O)[O-])cc3n2)[N+](=O)[O-])c1C (stereo not drawn)
[1]
  TGI: > 100 µM
[2]
  TGI: > 100 µM
[3]
  TGI: > 100 µM
[7]
  TGI: > 100 µM
[6]
  TGI: > 100 µM

## COc1cc(C2(C)SCCCS2)cc(OC)c1OC
[1]
  TGI: > 100 µM
[2]
  TGI: > 100 µM
[3]
  TGI: > 100 µM
[7]
  TGI: > 100 µM

## COc1ccc(NC(=O)C(=O)/C=C(\O)c2ccccc2)cc1
[5]
  TGI: > 10 µM

## CCOC(=O)C1Nc2ccccc2[C@H]2OCC[C@@H]12 (stereo partly drawn)
[1]
  TGI: > 100 µM
[2]
  TGI: > 100 µM
[3]
  TGI: > 100 µM
[4]
  TGI: > 100 µM
[6]
  TGI: > 100 µM

## CCCC(S(=O)(=O)c1ccccc1)S(=O)(=O)c1ccccc1
[1]
  TGI: > 100 µM
[3]
  TGI: > 100 µM
[7]
  TGI: > 100 µM
[4]
  TGI: > 100 µM
[6]
  TGI: > 100 µM

## N#CCN1C(=O)c2cc([N+](=O)[O-])cc3cc([N+](=O)[O-])cc(c23)C1=O
[1]
  TGI: > 100 µM
[2]
  TGI: > 100 µM
[3]
  TGI: 37.7 µM
[7]
  TGI: > 60.6 µM
[4]
  TGI: > 58 µM
[6]
  TGI: 25 µM

## O=C(O)c1ccccc1NC(=S)c1ccccc1
[5]
  TGI: > 100 µM

## CNNC(=NS(=O)(=O)c1cc(C#N)c(NNC)cc1S)NNC
[5]
  TGI: > 10 µM

## N#CNc1nc(N)c(-c2ccc(Cl)cc2)c(C(=O)Nc2nccs2)n1
[1]
  TGI: > 100 µM
[2]
  TGI: > 100 µM
[3]
  TGI: > 100 µM
[4]
  TGI: > 100 µM
[6]
  TGI: > 100 µM

## Cc1cc(C)c(C2CNCc3cc4c(cc32)CNCC4c2c(C)cc(C)cc2C)c(C)c1 (stereo not drawn)
[5]
  GI50: 2.05 mg/L (≈ 4.83 µM)
  TGI: 4.3 mg/L

## COc1ccc(OC(=O)CC2Cc3cc(OC)c(OC)c(OC)c3-c3ccc(SC)c(=O)cc32)cc1 (stereo not drawn)
[1]
  TGI: > 100 µM
[3]
  TGI: > 100 µM
[7]
  TGI: > 100 µM
[6]
  TGI: 7.8 µM

## CC(=O)O[C@@H]1C[C@@]2(C)[C@@H]3CC=C4[C@@H](C[C@H](O)C(=O)C4(C)C)[C@]3(C)C(=O)C[C@]2(C)[C@H]1[C@@](C)(O)C(=O)/C=C/C(C)(C)OC(C)=O
[5]
  TGI: 14.8 µM

## COc1ccc(C(=O)/C=C/c2ccc(OCC#N)cc2)cc1
[5]
  TGI: > 10 µM

## Nc1nc(N)c(CCCCc2ccccc2)c(N)n1
[1]
  TGI: > 100 µM
[3]
  TGI: > 100 µM
[5]
  TGI: > 100 µM
[6]
  TGI: > 100 µM

## Cc1cc(=O)c2c(O)cc3c(c2o1)CC=C(COC1OC(COC2OC(CO)C(O)C(O)C2O)C(O)C(O)C1O)CO3 (stereo not drawn)
[1]
  TGI: > 100 µM
[3]
  TGI: > 100 µM
[4]
  TGI: > 100 µM
[6]
  TGI: > 100 µM

## O=C(NCCNCCO)c1cccc2ccc(-c3ccccc3)nc12
[1]
  TGI: 14.1 µM
[2]
  TGI: 45.8 µM
[3]
  TGI: 15.7 µM
[7]
  TGI: 12.1 µM
[4]
  TGI: 29.1 µM

## NNc1nnc(-c2nnc(NN)o2)o1
[5]
  TGI: > 10 µM
